The target of this experiment is EGFR WT (Homo sapiens (Human), UniProt P00533). The experiment in a line: ErbB enzyme assay (CisBio HTRF-KinEASE-TK), EGFR WT. The format is biochemical. The note with it: ATP at Km (25 μM), 1 h incubation. The protocol:
In vitro enzyme assays based on CisBio HTRF-KinEASE-TK technology were used to determine compound potencies. […]. Compounds were prepared as a three-fold serial dilution in DMSO and added to the assay to give the appropriate final concentration. After a 1 h incubation at ambient temperature, the reaction was quenched by adding 10 μL of 62.5 nM Sa-XL665 and 0.25×TK-Ab-Cryptate in HTRF detection buffer (all from CisBio, part of cat #62TKOPEC). After another 1 h incubation at ambient temperature, the extent of substrate phosphorylation was determined using a PerkinElmer EnVision multimode plate reader via time-resolved fluorescence dual wavelength detection. The percent of control (POC) was calculated using the ratio of emission at […] to the emission at 620 nm. One hundred POC was determined using DMSO only controls (no test compounds present) and zero POC was determined using pre-quenched controls reactions. A 4-parameter logistic equation was fit to the POC values as a function of the test compound concentration and the IC50 value was determined as the point where the curve crossed 50 POC.
For orientation: Time-resolved FRET reads energy transfer from a long-lived donor to a nearby acceptor.

Some results are limits rather than exact numbers.

Chain of EGFR WT (P00533 25-1210): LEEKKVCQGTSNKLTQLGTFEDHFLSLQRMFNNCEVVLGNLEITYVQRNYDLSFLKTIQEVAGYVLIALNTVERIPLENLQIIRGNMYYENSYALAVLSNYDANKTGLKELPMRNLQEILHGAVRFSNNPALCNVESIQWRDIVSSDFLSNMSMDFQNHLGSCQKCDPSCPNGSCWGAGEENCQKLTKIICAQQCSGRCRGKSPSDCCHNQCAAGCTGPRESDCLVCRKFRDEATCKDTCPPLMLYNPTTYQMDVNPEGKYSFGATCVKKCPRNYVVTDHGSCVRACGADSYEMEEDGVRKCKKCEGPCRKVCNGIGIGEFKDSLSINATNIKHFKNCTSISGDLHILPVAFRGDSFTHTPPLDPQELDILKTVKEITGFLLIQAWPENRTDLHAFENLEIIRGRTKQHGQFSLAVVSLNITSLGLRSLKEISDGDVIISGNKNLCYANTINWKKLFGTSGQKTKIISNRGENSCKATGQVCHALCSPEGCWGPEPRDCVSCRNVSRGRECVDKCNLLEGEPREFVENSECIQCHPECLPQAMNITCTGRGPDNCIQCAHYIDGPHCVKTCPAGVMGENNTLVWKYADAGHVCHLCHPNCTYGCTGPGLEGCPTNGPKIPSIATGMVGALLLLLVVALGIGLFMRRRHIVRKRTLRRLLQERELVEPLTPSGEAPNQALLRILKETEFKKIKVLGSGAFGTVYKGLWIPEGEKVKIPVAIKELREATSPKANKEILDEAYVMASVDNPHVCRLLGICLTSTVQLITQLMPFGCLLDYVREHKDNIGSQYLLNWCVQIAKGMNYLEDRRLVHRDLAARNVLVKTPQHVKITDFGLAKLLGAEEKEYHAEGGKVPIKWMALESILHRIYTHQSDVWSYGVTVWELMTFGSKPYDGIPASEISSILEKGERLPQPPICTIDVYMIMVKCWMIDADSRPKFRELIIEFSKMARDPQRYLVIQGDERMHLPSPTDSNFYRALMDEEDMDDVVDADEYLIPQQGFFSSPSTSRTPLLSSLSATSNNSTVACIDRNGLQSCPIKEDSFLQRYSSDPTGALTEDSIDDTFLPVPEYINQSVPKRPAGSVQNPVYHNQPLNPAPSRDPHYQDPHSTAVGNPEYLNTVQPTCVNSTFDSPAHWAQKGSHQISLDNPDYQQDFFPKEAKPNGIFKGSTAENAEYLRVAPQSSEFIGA

The compound `C=CC(=O)N1C[C@@H](N(C)c2ccc3ncnc(Nc4ccc(Oc5ccc6c(c5)nnn6C)c(C)c4F)c3n2)CC[C@H]1C` [Compound 352, 1-((2R,5S)-5-((4-((2-fluoro-3-methyl-4-((1-methyl-1H-benzo[d][1,2,3]triazol-5-yl)oxy)phenyl)amino)pyrido[3,2-d]pyrimidin-6-yl)(methyl)amino)-2-methylpiperidin-1-yl)prop-2-en-1-one] registered an IC50 of 100 to 500 nM. The figure for `C=CC(=O)N[C@H]1[C@@H]2C[C@H]1CN(c1ncc3ncnc(Nc4ccc(Oc5ccc6c(c5)nnn6C)c(C)c4)c3n1)C2` [Compound 207, N-((1R,5S,6r)-3-(8-((3-methyl-4-((1-methyl-1H-benzo[d][1,2,3]triazol-5-yl)oxy)phenyl)amino)pyrimido[5,4-d]pyrimidin-2-yl)-3-azabicyclo[3.1.1]heptan-6-yl)acrylamide] is 100 to 500 nM; for `C=CC(=O)N[C@@H]1CCN(c2ccc3ncnc(Nc4ccc(Oc5ccc6c(c5)nnn6C)c(C)c4F)c3n2)CC1(C)C` [Compound 344, (R)-N-(1-(4-((2-fluoro-3-methyl-4-((1-methyl-1H-benzo[d][1,2,3]triazol-5-yl)oxy)phenyl)amino)pyrido[3,2-d]pyrimidin-6-yl)-3,3-dimethylpiperidin-4-yl)acrylamide] it is 100 to 500 nM; for `C=CC(=O)N1CC[C@@H](N(C)c2ncc3ncnc(Nc4ccc(Oc5ccc6c(c5)nnn6C)c(C)c4)c3n2)C1` [Compound 128, (R)-1-(3-(methyl(8-((3-methyl-4-((1-methyl-1H-benzo[d][1,2,3]triazol-5-yl)oxy)phenyl)amino)pyrimido[5,4-d]pyrimidin-2-yl)amino)pyrrolidin-1-yl)prop-2-en-1-one] it is 100 to 500 nM. For `C=CC(=O)N1CCN(c2ccc3ncnc(Nc4cc(Cl)c(Oc5ccc6c(c5)nnn6C)cc4F)c3n2)CC1` [Compound 244, 1-(4-(4-((5-chloro-2-fluoro-4-((1-methyl-1H-benzo[d][1,2,3]triazol-5-yl)oxy)phenyl)amino)pyrido[3,2-d]pyrimidin-6-yl)piperazin-1-yl)prop-2-en-1-one] the value was 100 to 500 nM; for `C=CC(=O)N[C@@H]1CN(c2ncc3ncnc(Nc4ccc(Oc5ccc6c(c5)nnn6C)c(C)c4F)c3n2)CC[C@H]1C` [Compound 230, N-((3S,4R)-1-(8-((2-fluoro-3-methyl-4-((1-methyl-1H-benzo[d][1,2,3]triazol-5-yl)oxy)phenyl)amino)pyrimido[5,4-d]pyrimidin-2-yl)-4-methylpiperidin-3-yl)acrylamide], 100 to 500 nM. Take `Cc1cc(Nc2ncnc3ccc(N4CC5CC(C4)N5C(=O)/C=C/C(F)F)nc23)ccc1Oc1ccc2c(c1)nnn2C` [Compound 359, (E)-4,4-difluoro-1-(3-(4-((3-methyl-4-((1-methyl-1H-benzo[d][1,2,3]triazol-5-yl)oxy)phenyl)amino)pyrido[3,2-d]pyrimidin-6-yl)-3,6-diazabicyclo[3.1.1]heptan-6-yl)but-2-en-1-one]: the IC50 lay in the range of 100 to 500 nM. `C=C(F)C(=O)N1CCN(c2ncc3ncnc(Nc4ccc(Oc5ccc6c(c5)nnn6C)c(C)c4)c3n2)C[C@@H]1COC` [Compound 193, (R)-2-fluoro-1-(2-(methoxymethyl)-4-(8-((3-methyl-4-((1-methyl-1H-benzo[d][1,2,3]triazol-5-yl)oxy)phenyl)amino)pyrimido[5,4-d]pyrimidin-2-yl)piperazin-1-yl)prop-2-en-1-one] showed an IC50 of at least 1000 nM. The figure for `C=CC(=O)N1CCN(c2ccc3ncnc(Nc4cc(C)c(Oc5ccc6c(c5)nnn6C)cc4OC(F)F)c3n2)CC1(C)C` [Compound 305, 1-(4-(4-((2-(difluoromethoxy)-5-methyl-4-((1-methyl-1H-benzo[d][1,2,3]triazol-5-yl)oxy)phenyl)amino)pyrido[3,2-d]pyrimidin-6-yl)-2,2-dimethylpiperazin-1-yl)prop-2-en-1-one] is 100 to 500 nM.

One may read the IC50 as the point on the concentration scale where inhibition reaches its midpoint. Lower therefore signals inhibition by little substance.

These data come from patent US20250129078A1, “ERBB2 INHIBITORS” (Cogent Biosciences, Inc., priority 2023, published 2025).
